For experiment [1], the system named is A12-MB-A12 (FAM/DABCYL-labeled) (DNA, hairpin) AAAAAAAAAAAACATCATAGTCGAGTGTCCAGGGAAAAAAAAAAAA
As to the kind of experiment: FAM/DABCYL fluorescence quenching titration. The settings on record: 10 mM HEPES pH 7.3; 10 nM DNA; saturation at 0.6 μM coralyne.

Experiment [2] concerns FAM-A40-DABCYL (A40) (DNA, hairpin) AAAAAAAAAAAAAAAAAAAAAAAAAAAAAAAAAAAAAAAA
As to the kind of experiment: FAM/DABCYL fluorescence quenching titration. The settings on record: 10 mM HEPES pH 7.3; 10 nM DNA; saturation at 0.6 μM coralyne.

Experiment [3] concerns label-free A12-MB-A12 (DNA, hairpin) AAAAAAAAAAAACATCATAGTCGAGTGTCCAGGGAAAAAAAAAAAA
Briefly: SYBR Green I fluorescence enhancement on folding. Conditions: 10 mM HEPES pH 7.3; 0.5 μM DNA; 160 nM SYBR Green I.

Structures are written as SMILES.

By Kd is commonly meant the equilibrium constant for the complex coming apart. The compound `COc1cc2cc3c4cc(OC)c(OC)cc4cc[n+]3c(C)c2cc1OC` registered a Kd in experiment [1] of 500 nM. Also, the binding entry in experiment [2] and in experiment [3] was “yes” in each case.

These data come from article PMC5308256 (2017).
